The test system of assay [1] is KBM-7. As to the kind of experiment: Downregulation of c-Myc expression in human KBM-7 cells at 5 uM after 5 hrs by Western blotting analysis. The format is functional, cell-based.
Assay [2] addresses Bromodomain-containing protein 3 (Homo sapiens) (UniProt Q15059). Nature of the assay: Induction of BRD3 degradation in human KBM-7 cells at 5 uM incubated for 5 hrs by Western blotting analysis. The format is cell-based.
Assay [3] concerns the target T1, Bromodomain-containing protein 4 (Homo sapiens, UniProt O60885). As to the kind of experiment: Induction of BRD4 degradation in human KBM-7 cells at 5 uM incubated for 5 hrs by Western blotting analysis. The class given is cell-based.
Assay [4] deals with T1, Bromodomain-containing protein 4. As to the kind of experiment: Induction of nLuc-tagged BRD4S degradation in human KBM-7 cells incubated for 2 to 24 hrs by nanoluciferase based assay. The format is cell-based. As to conditions: for Activity: time 2-24 hrs.
Assay [5] shares this target. As to the kind of experiment: Induction of nLuc-tagged BRD4S degradation in human KBM-7 cells by nanoluciferase based assay. The format is cell-based. As to conditions: time 2-24 hrs, TDE = time-dependent effect.
For assay [6], the target named is Bromodomain-containing protein 3 (Homo sapiens) (UniProt Q15059). Nature of the assay: Induction of BRD3 degradation in human KBM-7 cells at 5 uM pretreated with TAK-243 for 1 hr followed by compound addition and measured after 6 hrs by Western blotting analysis. The format is cell-based.
Bromodomain-containing protein 3 (Homo sapiens), sequence (Q15059 2-726 limits assumed): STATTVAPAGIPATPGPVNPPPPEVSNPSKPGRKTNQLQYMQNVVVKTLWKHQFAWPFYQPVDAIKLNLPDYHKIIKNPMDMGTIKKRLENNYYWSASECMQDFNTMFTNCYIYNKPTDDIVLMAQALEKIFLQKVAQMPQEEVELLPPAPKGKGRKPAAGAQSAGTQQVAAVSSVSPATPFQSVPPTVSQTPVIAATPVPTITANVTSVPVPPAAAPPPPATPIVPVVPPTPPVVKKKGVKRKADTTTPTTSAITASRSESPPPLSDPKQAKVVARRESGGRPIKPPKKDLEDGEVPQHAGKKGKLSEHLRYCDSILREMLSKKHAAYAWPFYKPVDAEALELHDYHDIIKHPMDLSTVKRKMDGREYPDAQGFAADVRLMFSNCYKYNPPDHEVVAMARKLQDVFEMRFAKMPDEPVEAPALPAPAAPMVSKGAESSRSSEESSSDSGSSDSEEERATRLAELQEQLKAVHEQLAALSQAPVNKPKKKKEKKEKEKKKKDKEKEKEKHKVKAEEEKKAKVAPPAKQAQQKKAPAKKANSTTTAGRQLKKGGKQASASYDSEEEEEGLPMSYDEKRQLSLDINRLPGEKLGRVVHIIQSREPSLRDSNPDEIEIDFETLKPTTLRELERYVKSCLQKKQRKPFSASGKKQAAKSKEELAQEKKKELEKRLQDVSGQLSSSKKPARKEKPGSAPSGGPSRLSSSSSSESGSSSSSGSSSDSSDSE
Assay [7] addresses T1, Bromodomain-containing protein 4. Nature of the assay: Induction of HA-tagged BRD4S degradation in human KBM-7 cells at 5 uM pretreated with carfilzomib for 1 hr followed by compound addition and measured after 6 hrs by Western blotting analysis. The format is cell-based.
The target is the same in assay [8]. As to the kind of experiment: Induction of BRD4 degradation in human KBM-7 cells at 5 uM pretreated with […] binder 12 for 1 hr followed by compound addition and measured after 5 hrs by Western blotting analysis. The format is cell-based.
Assay [9] addresses Bromodomain-containing protein 3 (Homo sapiens) (UniProt Q15059). As to the kind of experiment: Induction of BRD3 degradation in DCAF11 knockout human KBM-7 cells at 5 uM after 6 hrs by Western blotting analysis. The class given is cell-based.
Assay [10] deals with T1, Bromodomain-containing protein 4. As to the kind of experiment: Induction of HA-tagged BRD4S degradation in human KBM-7 cells at 5 uM after 5 to 20 hrs by Western blotting analysis. The settings on record: time 5-20 hrs. The format is cell-based.
The target is the same in assay [11]. Nature of the assay: Induction of HA-tagged BRD4S degradation in human KBM-7 cells at 5 uM pretreated with TAK-243 for 1 hr followed by compound addition and measured after 6 hrs by Western blotting analysis. The format is cell-based.
The target in assay [12] is Bromodomain-containing protein 2 (Homo sapiens) (UniProt P25440). Nature of the assay: Induction of BRD2 degradation in human KBM-7 cells at 5 uM pretreated with […] binder 11 for 1 hr followed by compound addition and measured after 5 hrs by Western blotting analysis. The class given is cell-based.
Bromodomain-containing protein 2 (Homo sapiens), sequence (P25440 whole entry, looked up): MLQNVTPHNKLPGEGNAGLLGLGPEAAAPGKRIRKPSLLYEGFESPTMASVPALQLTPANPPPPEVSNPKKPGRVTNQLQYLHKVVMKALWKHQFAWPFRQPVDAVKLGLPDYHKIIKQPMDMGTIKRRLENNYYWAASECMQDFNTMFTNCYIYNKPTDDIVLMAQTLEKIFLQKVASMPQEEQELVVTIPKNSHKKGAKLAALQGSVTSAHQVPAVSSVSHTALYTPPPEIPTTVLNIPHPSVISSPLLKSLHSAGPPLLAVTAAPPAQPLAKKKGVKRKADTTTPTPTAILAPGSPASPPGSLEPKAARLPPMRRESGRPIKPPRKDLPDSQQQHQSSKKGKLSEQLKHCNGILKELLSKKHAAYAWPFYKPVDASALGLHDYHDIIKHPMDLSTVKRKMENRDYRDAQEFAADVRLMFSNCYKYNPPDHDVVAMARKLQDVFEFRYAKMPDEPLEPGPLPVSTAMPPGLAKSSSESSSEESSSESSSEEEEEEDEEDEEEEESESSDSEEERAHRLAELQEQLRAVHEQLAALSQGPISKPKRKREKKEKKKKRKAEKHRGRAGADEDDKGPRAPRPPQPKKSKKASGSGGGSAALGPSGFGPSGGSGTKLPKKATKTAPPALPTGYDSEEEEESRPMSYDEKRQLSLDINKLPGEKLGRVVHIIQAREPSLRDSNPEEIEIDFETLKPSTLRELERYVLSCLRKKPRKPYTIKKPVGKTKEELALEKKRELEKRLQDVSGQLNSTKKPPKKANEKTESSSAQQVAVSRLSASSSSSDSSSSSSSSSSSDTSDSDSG
The target is the same in assay [13]. Nature of the assay: Induction of BRD2 degradation in human KBM-7 cells at 5 uM pretreated with DCAF11 binder 12 for 1 hr followed by compound addition and measured after 5 hrs by Western blotting analysis. The class given is cell-based.
The target of assay [14] is T1, Bromodomain-containing protein 4. Nature of the assay: Induction of BRD4 degradation in DCAF11 knockout human KBM-7 cells at 5 uM after 6 hrs by Western blotting analysis. The class given is cell-based.
Assay [15] concerns KBM-7. Nature of the assay: Downregulation of c-MYC expression in DCAF11 knockout human KBM-7 cells at 5 uM after 6 hrs by Western blotting analysis. The class given is functional, cell-based.
The target of assay [16] is T1, Bromodomain-containing protein 4. Nature of the assay: Induction of BRD4S-BFP in DCAF11 knockout human K-BM7 cells transduced with sgRNA-resistant DCAF11 vector containing Cys-to-Ala mutant at 5 uM incubated for 6 hrs by flow cytometry analysis. The format is cell-based. The settings on record: KBM-7.
For assay [17] the target is unchanged. As to the kind of experiment: Induction of HA-tagged BRD4S degradation in human KBM-7 cells at 5 uM pretreated with bortezomib for 1 hr followed by compound addition and measured after 6 hrs by Western blotting analysis. The class given is cell-based.
Assay [18] has the same target. Nature of the assay: Induction of BRD4 degradation in human KBM-7 cells at 5 uM pretreated with […] binder 11 for 1 hr followed by compound addition and measured after 5 hrs by Western blotting analysis. The class given is cell-based.
Assay [19] shares this target. As to the kind of experiment: Induction of BRD4S-BFP in DCAF11 knockout human K-BM7 cells transduced with sgRNA-resistant wild-type DCAF11 at 5 uM incubated for 6 hrs by flow cytometry analysis. The format is cell-based. As to conditions: KBM-7.
In assay [20] the target is Bromodomain-containing protein 3 (Homo sapiens) (UniProt Q15059). As to the kind of experiment: Induction of BRD3 degradation in human KBM-7 cells at 5 uM pretreated with […] binder 12 for 1 hr followed by compound addition and measured after 5 hrs by Western blotting analysis. The class given is cell-based.
For assay [21] the target is unchanged. Nature of the assay: Induction of BRD3 degradation in human KBM-7 cells at 5 uM pretreated with […] binder 11 for 1 hr followed by compound addition and measured after 5 hrs by Western blotting analysis. The class given is cell-based.
The target is the same in assay [22]. Nature of the assay: Induction of BRD3 degradation in human KBM-7 cells at 5 uM pretreated with bortezomib for 1 hr followed by compound addition and measured after 6 hrs by Western blotting analysis. The class given is cell-based.
The target is the same in assay [23]. Nature of the assay: Induction of BRD3 degradation in human KBM-7 cells at 5 uM pretreated with carfilzomib for 1 hr followed by compound addition and measured after 6 hrs by Western blotting analysis. The format is cell-based.

The structures appear in SMILES notation. Activity calls are given as the source filed them. The rule behind the calls is not given here.

Turning to `Cc1sc2c(c1C)C(c1ccc(Cl)cc1)=N[C@@H](CC(=O)NCCCCCCNC(=O)COc1ccc(CNC(=O)CCc3ccc4ccccc4c3)cc1)c1nnc(C)n1-2`, in the assay on KBM-7 [1], the outcome was inactive. The result in assay [2] and in [3] was Active.

In the case of `Cc1sc2c(c1C)C(c1ccc(Cl)cc1)=N[C@@H](CC(=O)NCCCCCCNC(=O)COc1ccc(CNC(=O)/C=C/c3ccc4ccccc4c3)cc1)c1nnc(C)n1-2`, the result (with KBM-7 [1]; in [4]) was inactive. The result in [2] and in [3] was Active.

Take `Cc1sc2c(c1C)C(c1ccc(Cl)cc1)=N[C@@H](CC(=O)NCCOCCOCCNC(=O)COc1ccc(CNC(=O)/C(C#N)=C/c3ccc4ccccc4c3)cc1)c1nnc(C)n1-2`: the Activity result in assay [5] was “Tde”. For the same compound, in assay [4], the DC50 came out at 396 nM and the Activity result was “Dose-Dependent Effect”.

As to `Cc1sc2c(c1C)C(c1ccc(Cl)cc1)=N[C@@H](CC(=O)NCCCCCCNC(=O)COc1ccc(CNC(=O)/C(C#N)=C/c3ccc4ccccc4c3)cc1)c1nnc(C)n1-2`, the outcome in assay [6], in assay [7], in assay [8], in [9], in assay [11] and in [12] was inactive. Besides, the result in assay [13], in assay [14], in [16], in assay [17], in assay [18] and in assay [20] was inactive. The outcome in assay [21], in [22] and in assay [23] was inactive. The figures for the Activity result in [5] and in assay [4] were “Tde” and “Dose-Dependent Effect”, respectively. The outcome (in [10]; with KBM-7 [1]; in assay [2]; in the assay with KBM-7 [15]; in assay [19]; in [3]) was Active. Moreover, the 50% degradation concentration (DC50) in [4] came out at 305 nM.

For the origin of these results see ChEMBL document CHEMBL5576050, “Discovery of a DCAF11-dependent cyanoacrylamide-containing covalent degrader of BET-proteins” (Bioorg Med Chem Lett, 2024).
